Data published in ChEMBL document CHEMBL1201862, “PubChem BioAssay data set” (2004).
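All cell lines were grown in 96-well plates and treated with compound for 48 hours. Abbreviation: GI50, concentration required for 50% inhibition of growth.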 The source made the active and inactive calls. Rule as the data show it: active = GI50 up to about 1.1 µM and inactive = higher.

Legend:
Assay in all cases: inhibition of tumour cell growth, NCI panel, 48 h
A549 = system: A549
DLD-1 = system: DLD-1
DMS-114 = system: DMS-114
HOP-18 = system: HOP-18
HT-29 = system: HT-29
LOX IMVI = system: LOX IMVI
MOLT-4 = system: MOLT-4
NCI-H522 = system: NCI-H522
RXF 393 = system: RXF 393
SK-MEL-2 = system: SK-MEL-2
SN12C = system: SN12C
SNB-75 = system: SNB-75
SW-620 = system: SW-620
U-251 = system: U-251
XF498 = system: XF498

Measured: GI50

O=C(CCC(=O)Nc1ccc(Cl)c(Cl)c1)CC(=O)c1ccc(Br)cc1
inactive: A549 > 100 µM | DLD-1 > 100 µM | DMS-114 > 100 µM | HOP-18 > 100 µM | HT-29 > 100 µM | LOX IMVI > 100 µM | MOLT-4 > 100 µM | NCI-H522 > 100 µM | RXF 393 > 100 µM | SK-MEL-2 > 100 µM | SN12C > 100 µM | SNB-75 61.7 µM | SW-620 > 100 µM | U-251 > 100 µM | XF498 > 100 µM

CCCCCCCCCCCCCCCCOCC(COP(=O)([O-])OCC[N+](C)(C)C)OCCCCCCCCCCCCCCCC (stereo not given)
inactive: A549 > 10 µM | DLD-1 > 100 µM | DMS-114 > 100 µM | HOP-18 > 100 µM | HT-29 > 100 µM | LOX IMVI > 100 µM | MOLT-4 > 100 µM | NCI-H522 > 100 µM | RXF 393 > 100 µM | SK-MEL-2 > 100 µM | SN12C > 100 µM | SNB-75 > 100 µM | SW-620 > 100 µM | U-251 > 100 µM | XF498 > 100 µM

Nc1c(C(=O)Nc2ccc(C3=NCCN3)cc2)cccc1C(=O)Nc1ccc(C2=NCCN2)cc1
inactive: A549 > 100 µM | DLD-1 > 100 µM | DMS-114 > 100 µM | HOP-18 > 100 µM | HT-29 > 100 µM | LOX IMVI > 100 µM | MOLT-4 > 100 µM | NCI-H522 > 65.2 µM | RXF 393 > 100 µM | SK-MEL-2 > 100 µM | SN12C > 88.1 µM | SNB-75 > 64.9 µM | SW-620 > 100 µM | U-251 53.5 µM | XF498 > 100 µM

CCN(CC)c1c(C)c(C(=O)OC)nn1-c1ccccc1
inactive: A549 97.5 µM | DLD-1 > 100 µM | DMS-114 38.7 µM | HOP-18 > 100 µM | HT-29 70.3 µM | LOX IMVI 86.5 µM | MOLT-4 43.1 µM | NCI-H522 63.8 µM | RXF 393 33.3 µM | SK-MEL-2 > 89.7 µM | SN12C > 100 µM | SNB-75 > 100 µM | SW-620 > 100 µM | U-251 61.1 µM | XF498 > 34.5 µM

CC(=O)Nc1ccc(C2=N/C(=C\c3ccc(Cl)c(Cl)c3)C(=O)O2)cc1
inactive: A549 > 100 µM | DLD-1 64 µM | DMS-114 > 100 µM | HOP-18 > 100 µM | HT-29 > 100 µM | LOX IMVI 30 µM | MOLT-4 > 100 µM | NCI-H522 > 100 µM | RXF 393 > 100 µM | SK-MEL-2 > 100 µM | SN12C > 100 µM | SNB-75 64.6 µM | SW-620 > 100 µM | U-251 > 100 µM | XF498 57.5 µM
